The values that follow come from patent US6589549B2, “Bioactive agent delivering system comprised of microparticles within a biodegradable to improve release profiles” (Macromed, Incorporated, priority 2000, dated 2003).

For the data set the following is noted: in the presence of the block copolymer.

For the molecule `CC(=O)O[C@H]1C(=O)[C@@]2(C)[C@H]([C@H](OC(=O)c3ccccc3)[C@]3(O)C[C@H](OC(=O)[C@H](O)[C@@H](NC(=O)c4ccccc4)c4ccccc4)C(C)=C1C3(C)C)[C@]1(OC(C)=O)CO[C@@H]1C[C@@H]2O` [paclitaxel], the “chemical stability in the aqueous polymer composition relative to aqueous solutions with organic co-solvents” value is recorded as “substantially stabilized”.
